# Assay results taken from article PMC4402537, “mRNA maturation in giant viruses: variation on a theme” (Nucleic Acids Research, 2015).
# How the values were obtained:
# [1] = molecular target: T1, Mg561 (H6c-Mg561) (Megavirus chiliensis, UniProt G5CT11); assay: in vitro polyadenylation of […]-labelled 20-mer RNA, urea-PAGE; type: biochemical; conditions: 100 μM ATP, 5 mM MgCl2 or 0.5 mM MnCl2, pH 7.5, 30°C
# T1 construct: gene mchi_555; full length, N-terminal His6 tag removed by HRV 3C protease; E. coli Rosetta (DE3)
# T1 sequence (G5CT11 1-531): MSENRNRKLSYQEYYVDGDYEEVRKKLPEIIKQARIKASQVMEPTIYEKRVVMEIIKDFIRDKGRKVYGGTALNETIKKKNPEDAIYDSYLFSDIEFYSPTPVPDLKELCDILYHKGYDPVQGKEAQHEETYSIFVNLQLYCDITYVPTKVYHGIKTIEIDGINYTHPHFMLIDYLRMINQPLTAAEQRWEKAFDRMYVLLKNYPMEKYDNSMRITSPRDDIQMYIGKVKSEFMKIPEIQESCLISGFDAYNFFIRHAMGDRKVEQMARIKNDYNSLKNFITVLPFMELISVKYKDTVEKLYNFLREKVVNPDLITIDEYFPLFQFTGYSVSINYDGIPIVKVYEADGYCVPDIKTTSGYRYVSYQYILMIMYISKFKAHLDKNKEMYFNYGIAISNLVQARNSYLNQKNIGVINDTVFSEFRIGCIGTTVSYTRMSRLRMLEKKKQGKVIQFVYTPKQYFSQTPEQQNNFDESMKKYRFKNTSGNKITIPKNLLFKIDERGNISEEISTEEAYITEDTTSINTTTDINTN
# [2] = molecular target: T2, R341 (H6c-R341) (Acanthamoeba polyphaga mimivirus, UniProt Q5UQS6); conditions: 100 μM ATP, 5 mM MgCl2 or 0.5 mM MnCl2, pH 7.5, 30°C
# T2 construct: gene MIMI_R341
# [3] = molecular target: T3, Mg18 (H6c+Mg18) (Megavirus chiliensis, UniProt G5CQI9); assay: methyl transfer from 3H-AdoMet to RNA, DEAE filter binding; type: biochemical; conditions: 10 μM AdoMet, GpppAN13, 7MeGpppAN13 or poly(A) RNA 0.7 μM, 1 mM MgCl2, pH 7.5, 30°C; labelled compound
# T3 construct: gene mchi_21; full length, N-terminal His6 tag kept; E. coli Rosetta (DE3)
# T3 sequence (G5CQI9 1-340): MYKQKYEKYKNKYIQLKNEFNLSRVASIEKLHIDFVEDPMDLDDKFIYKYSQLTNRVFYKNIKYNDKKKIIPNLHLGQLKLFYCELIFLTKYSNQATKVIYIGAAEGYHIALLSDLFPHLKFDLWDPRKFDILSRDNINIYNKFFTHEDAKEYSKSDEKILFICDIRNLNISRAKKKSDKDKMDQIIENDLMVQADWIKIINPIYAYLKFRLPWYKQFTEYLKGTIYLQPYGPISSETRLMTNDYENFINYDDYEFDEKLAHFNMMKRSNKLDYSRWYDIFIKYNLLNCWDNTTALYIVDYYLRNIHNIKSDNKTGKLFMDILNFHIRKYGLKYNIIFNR
# [4] = molecular target: T1, Mg561 (H6c-Mg561); assay: in vitro polyU tailing of […]-labelled 20-mer RNA, urea-PAGE; type: biochemical; conditions: 100 μM UTP in place of ATP, Mn2+ (similar with Mg2+), pH 7.5, 30°C
# [5] = molecular target: Megavirus chilensis polyA polymerase Mg561, after tag removal (H6c-Mg561) (Megavirus chilensis); assay: SEC; gel filtration of purified proteins, GE Healthcare markers for calibration
# [6] = molecular target: Megavirus chilensis Mg18 protein with N-terminal His6 tag (H6c+Mg18) (Megavirus chilensis); assay: BLI
# [7] = molecular target: Mimivirus polyA polymerase R341, after tag removal (H6c-R341) (Mimivirus); assay: SEC; gel filtration of purified proteins, GE Healthcare markers for calibration
compound,measurement,setting,value
Nc1ncnc2c1ncn2[C@@H]1O[C@H](COP(=O)(O)OP(=O)(O)OP(=O)(O)O)[C@@H](O)[C@H]1O [ATP],"in vitro polyadenylation of 32P-labelled 20-mer RNA, urea-PAGE",[1],"synthesize long products, apparently proccessively, derived from the RNA and ATP"
same,"in vitro polyadenylation of 32P-labelled 20-mer RNA, urea-PAGE",[2],"synthesize long products, apparently proccessively, derived from the RNA and ATP"
C[S+](CC[C@H](N)C(=O)O)C[C@H]1O[C@@H](n2cnc3c(N)ncnc32)[C@H](O)[C@@H]1O (stereo partly shown) [AdoMet],"methyl transfer from 3H-AdoMet to RNA, DEAE filter binding",[3],Mg18 had comparable activity with 7MeGpppAN13 and GpppAN13
O=c1ccn([C@@H]2O[C@H](COP(=O)(O)OP(=O)(O)OP(=O)(O)O)[C@@H](O)[C@H]2O)c(=O)[nH]1 [UTP],"in vitro polyU tailing of 32P-labelled 20-mer RNA, urea-PAGE",[4],"Mg561 was also able to add long polyU tails, although with a reduced activity"
"Megavirus chilensis polyA polymerase Mg561, after tag removal (H6c-Mg561) (enzyme)",stoichiometry N,[5],2
same,Kd,[6],6.2 µM
"Mimivirus polyA polymerase R341, after tag removal (H6c-R341) (enzyme)",stoichiometry N,[7],2
